Where two headings read alike, the source gives them in different places. A value given as a limit tells only on which side of the number the result lay.

The nature of series [1]: Solubility of phenolic compounds and caffeine in water without hydrotropes. The conditions noted are these: for solubility: in water. The text has this: Baicalin, a component of Chinese medicinal herb Huang-chin, is a flavone, a type of flavonoid.
Series [2] is described as follows: Solubility in water with hydrotropes (nicotinamide, caffeine). The conditions noted are these: 5% nicotinamide and 5% caffeine.
A short description of series [3]: Oxygen Radical Absorbance Capacity (ORAC) assay. The conditions noted are these: individual values, known activity of each antioxidant. Format: biochemical.
From the text: The ORAC assay measures the oxidative degradation of the fluorescent probe (fluorescein) after being mixed with free radical generators such as azo-initiator compounds (2,2′-Azobis(2-amidinopropane)dihydrochloride, AAPH). Azo-initiators are considered to produce the peroxyl radical by heating, which damages the fluorescent molecule, resulting in the loss of fluorescence. Antioxidants are considered to protect the fluorescent molecule from the oxidative degeneration. By quantifying the decay of fluorescence using a fluorometer, the degree of protection is determined comparing with a standard control antioxidant Trolox. The result is expressed in μmol equivalent of Trolox per gram of sample (i.e., μmolTE/g).
To test samples by using ORAC, compounds are dissolved into water-based NaH2PO4 buffer.
Series [4] can be described thus: Solubility of baicalin in organic solvent PEG-4. Format: physicochemical. The text has this:
Crystallization or precipitation occurs after mixing the glycol phase and water phase.

The nature of series [5]: pH stability of baicalin in water. Format: physicochemical.
Series [6] can be described thus: HORAC assay (hydroxyl radical averting capacity). The conditions noted are these: individual values, known activity of each antioxidant. The class given is biochemical.
From the text: The Varioskan Flash is employed for the quantification of the capacity of an antioxidant to avert the hydroxyl radical. The hydroxyl radical, generated from hydrogen peroxide and Cobalt (II) fluoride, will quench a fluorescent probe by a hydrogen atom transfer reaction. In the presence of an antioxidant, however, the molecule will chelate the Co(II), preventing the generation of the hydroxyl radical and initially block or prevent the quenching of the probe, causing a delay in the fluorescence decay profile. The area under the fluorescence decay curves for samples with and without the presence of an antioxidant molecule are compared to that of a standard reference material and the hydroxyl radical averting capacity is determined
By quantifying the decay of fluorescence using a fluorometer, the degree of protection is determined by comparison with a standard control antioxidant Gallic Acid (standard reference material). The result is expressed in μmol equivalent of Gallic Acid per gram of sample (i.e., μmolGAE/g).
To test samples by using HORAC, compounds are dissolved into water-based NaH2PO4 buffer.

For `O=C1c2c(O)cc(O)cc2O[C@H](c2ccc(O)c(O)c2)[C@H]1O` [Taxifolin], the “Solubility in water without hydrotropes” value in series [1] (without hydrotropes) was <0.1 % (w/w). Also, in series [2], the “Solubility in water with hydrotropes” value is given as >1 % (w/w).
As to `Oc1ccc(C=Cc2cc(O)cc(O)c2)cc1` [Resveratrol], the “Solubility in water without hydrotropes” value in series [1] is recorded as <0.005 % (w/w).
In series [3], tocopherol [VIT. E (tocopherol)] displayed an ORAC of 1000 μmolTE/g.
As to `O=C(O)[C@H]1O[C@@H](Oc2cc3oc(-c4ccccc4)cc(=O)c3c(O)c2O)[C@H](O)[C@@H](O)[C@@H]1O` [Baicalin], the ORAC in series [3] was 4759 μmolTE/g. Also, the “baicalin dissolved by PEG-4” value in series [4] came out at 3%. The “pH at which degradation happens” value in series [5] is reported as over 5. This compound had a solubility in water in series [1] (at its natural pH ~4.5) of under 0.01%. For the same compound, the solubility in series [1] (pH 3) came out at 0.0016%; in series [1] (pH 3.5) it was 0.0021%; in series [1] (pH 4), 0.0040%; in series [1] (pH 4.5), 0.0084%; in series [1] (pH 5), 0.035%. In addition, the water solubility in series [1] (no hydrotrope) is listed as under 0.01%. Moreover, in series [1] (without hydrotropes), the “Solubility in water without hydrotropes” value was <0.01 % (w/w). The compound further showed an HORAC in series [6] of 2592 μmolGAE/g.
Consider `O=c1oc2c(O)c(O)cc3c(=O)oc4c(O)c(O)cc1c4c23` [Ellagic acid], for which the “Solubility in water without hydrotropes” value in series [1] is <0.001 % (w/w).
Turning to `COc1ccc([C@@H]2CC(=O)c3c(O)cc(O[C@@H]4O[C@H](CO)[C@@H](O)[C@H](O)[C@H]4O[C@@H]4O[C@@H](C)[C@H](O)[C@@H](O)[C@H]4O)cc3O2)cc1O` [Neohesperidin], in series [1], the “Solubility in water without hydrotropes” value is on record as <0.05 % (w/w).

The values above are taken from US9669242B2, “Compositions containing at least two phenolic compounds, a lipid-soluble antioxidant and at least one hydrotrope for cosmetic use” (L'OREAL, priority 2013, dated 2017).
